Patent US11771779B2, “Non-metallic magnetic resonance contrast agent” (HADASIT MEDICAL RESEARCH SERVICES & DEVELOPMENT LIMITED, priority 2018, dated 2023)
Read-outs that look alike come from different tables or passages of the source. Values belong to the molecule of their own block, whether it stands above or below them.

What was measured:
[1] = Estimated ^15N T1 (FIG. 1); conditions: same order of magnitude as [^15N,D9]choline, called a speculation
Text: FIG. 1 ^15N T1s of selected molecules in water (H2O) and D2O measured at 5.8 T; (a) denotes Na^15NO3; (b) denotes solid-state polarization in D2O and dissolution in D2O.; (c) denotes solid-state polarization in D2O and dissolution in H2O.; In this case, during the decay in solution the nitrogen positions are fully protonated as confirmed by the respective split pattern of the signal (not shown); a, b, and c—determined experimentally; (d) denotes estimation.

[2] = mice; cited from earlier work
[3] = rats; cited from earlier work
[4] = dogs; up to 120 mg/kg daily i.v. for 28 days; cited from earlier work
[5] = previous results; cited from earlier work

- ^15N T1 (estimated) [1]: about 6 min
SMILES: [2H]C([2H])([2H])[15N+](CCOP(=O)([O-])OCC(O)CO)(C([2H])([2H])[2H])C([2H])([2H])[2H] (centres unmarked) [[^15N,D9]GPC, [^15N,D9]glycerophosphocholine]

SMILES: C[N+](C)(C)CCOP(=O)([O-])OC[C@H](O)CO [GPC, glycerophosphocholine]
- safe dose for an intravenous injection [2]: 521 mg/kg
- safe dose for an intravenous injection [3]: 781 mg/kg
- effects of daily intravenous injection [4]: only mild and reversible mood changes and no mortality

SMILES: [2H]C([2H])([2H])[15N+](CCO)(C([2H])([2H])[2H])C([2H])([2H])[2H] [[^15N,D9]choline]
- ^15N T1 [5]: about 6 min
